Measured values reported in ChEMBL document CHEMBL1201862, “PubChem BioAssay data set” (2004).
The source made the active and inactive calls.

Experiments:
[1] = target: T1, Sentrin-specific protease 7 (Homo sapiens, UniProt Q9BQF6); assay type: functional;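 also: Luminescence-based dose-response confirmation of ultra-high-throughput screening hits, measuring inhibition of SENP7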
T1 sequence (Q9BQF6 whole entry): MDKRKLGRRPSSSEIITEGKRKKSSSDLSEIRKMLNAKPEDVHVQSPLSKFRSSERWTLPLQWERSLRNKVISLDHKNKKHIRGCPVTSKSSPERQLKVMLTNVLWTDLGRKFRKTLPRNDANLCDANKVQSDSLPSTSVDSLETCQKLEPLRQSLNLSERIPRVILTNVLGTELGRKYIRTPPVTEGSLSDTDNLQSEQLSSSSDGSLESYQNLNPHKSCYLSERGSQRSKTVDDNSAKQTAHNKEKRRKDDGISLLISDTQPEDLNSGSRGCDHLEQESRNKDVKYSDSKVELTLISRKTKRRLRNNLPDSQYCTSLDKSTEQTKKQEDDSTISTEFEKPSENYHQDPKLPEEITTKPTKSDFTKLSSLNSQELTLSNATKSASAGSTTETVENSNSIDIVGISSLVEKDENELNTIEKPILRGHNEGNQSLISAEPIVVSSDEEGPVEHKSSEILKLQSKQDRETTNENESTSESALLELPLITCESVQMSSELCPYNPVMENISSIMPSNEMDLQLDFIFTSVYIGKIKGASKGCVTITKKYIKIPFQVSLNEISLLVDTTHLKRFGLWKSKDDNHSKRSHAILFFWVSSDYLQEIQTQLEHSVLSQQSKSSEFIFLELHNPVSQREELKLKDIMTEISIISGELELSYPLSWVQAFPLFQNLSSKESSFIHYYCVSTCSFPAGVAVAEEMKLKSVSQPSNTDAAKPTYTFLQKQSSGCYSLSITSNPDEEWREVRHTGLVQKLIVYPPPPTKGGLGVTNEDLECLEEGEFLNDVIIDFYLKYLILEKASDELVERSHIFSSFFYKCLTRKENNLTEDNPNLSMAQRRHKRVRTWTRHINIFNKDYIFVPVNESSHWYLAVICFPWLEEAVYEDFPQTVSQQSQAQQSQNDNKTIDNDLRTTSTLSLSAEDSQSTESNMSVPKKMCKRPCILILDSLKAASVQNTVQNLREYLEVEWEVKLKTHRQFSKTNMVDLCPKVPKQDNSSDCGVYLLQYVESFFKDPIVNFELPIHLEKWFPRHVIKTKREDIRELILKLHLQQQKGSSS

[2] = target: T2, Sentrin-specific protease 6 (Homo sapiens, UniProt Q9GZR1); assay type: functional;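 also: Luminescence-based dose-response confirmatory assay of SENP6 inhibition, following up an ultra-high-throughput screen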
T2 sequence (Q9GZR1 whole entry): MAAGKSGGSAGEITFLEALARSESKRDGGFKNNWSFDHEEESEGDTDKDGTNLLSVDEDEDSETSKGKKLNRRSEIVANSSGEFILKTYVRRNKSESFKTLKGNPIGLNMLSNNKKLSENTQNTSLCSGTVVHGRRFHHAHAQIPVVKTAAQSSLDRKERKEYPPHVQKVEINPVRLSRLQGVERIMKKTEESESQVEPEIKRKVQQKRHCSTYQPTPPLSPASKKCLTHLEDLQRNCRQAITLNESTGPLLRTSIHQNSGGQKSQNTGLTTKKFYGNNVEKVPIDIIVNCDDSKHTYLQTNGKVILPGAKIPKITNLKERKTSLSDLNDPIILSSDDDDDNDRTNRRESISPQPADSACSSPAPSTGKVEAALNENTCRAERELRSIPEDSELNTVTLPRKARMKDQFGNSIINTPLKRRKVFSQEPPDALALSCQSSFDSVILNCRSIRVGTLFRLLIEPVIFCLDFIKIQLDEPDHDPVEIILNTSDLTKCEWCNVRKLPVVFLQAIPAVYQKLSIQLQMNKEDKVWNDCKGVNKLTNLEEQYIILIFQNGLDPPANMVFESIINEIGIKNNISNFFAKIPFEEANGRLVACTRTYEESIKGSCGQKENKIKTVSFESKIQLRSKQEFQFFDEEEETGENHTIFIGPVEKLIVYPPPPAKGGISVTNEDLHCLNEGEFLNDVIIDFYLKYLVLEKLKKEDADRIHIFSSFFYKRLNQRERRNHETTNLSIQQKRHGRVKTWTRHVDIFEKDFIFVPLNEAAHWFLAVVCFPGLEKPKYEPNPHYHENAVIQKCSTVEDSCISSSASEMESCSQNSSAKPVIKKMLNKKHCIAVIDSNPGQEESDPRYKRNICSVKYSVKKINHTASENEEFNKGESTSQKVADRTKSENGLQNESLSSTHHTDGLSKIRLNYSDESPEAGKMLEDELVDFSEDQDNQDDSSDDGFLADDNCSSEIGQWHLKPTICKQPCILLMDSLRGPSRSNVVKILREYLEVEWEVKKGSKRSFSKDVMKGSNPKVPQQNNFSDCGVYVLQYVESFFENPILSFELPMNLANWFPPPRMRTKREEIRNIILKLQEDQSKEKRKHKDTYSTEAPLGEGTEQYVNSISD

Protein RecA = target: T3, Protein RecA (Mycobacterium tuberculosis, UniProt P9WHJ3); experiment: Fluorescence Cell-Free Homogeneous Dose Retest to Identify Inhibitors of RecA-Intein Splicing Activity. [Related pubchem assays (depositor defined):AID2097, AID2223, AID489010, AID492950]; assay type: functional
T3 sequence (P9WHJ3 whole entry): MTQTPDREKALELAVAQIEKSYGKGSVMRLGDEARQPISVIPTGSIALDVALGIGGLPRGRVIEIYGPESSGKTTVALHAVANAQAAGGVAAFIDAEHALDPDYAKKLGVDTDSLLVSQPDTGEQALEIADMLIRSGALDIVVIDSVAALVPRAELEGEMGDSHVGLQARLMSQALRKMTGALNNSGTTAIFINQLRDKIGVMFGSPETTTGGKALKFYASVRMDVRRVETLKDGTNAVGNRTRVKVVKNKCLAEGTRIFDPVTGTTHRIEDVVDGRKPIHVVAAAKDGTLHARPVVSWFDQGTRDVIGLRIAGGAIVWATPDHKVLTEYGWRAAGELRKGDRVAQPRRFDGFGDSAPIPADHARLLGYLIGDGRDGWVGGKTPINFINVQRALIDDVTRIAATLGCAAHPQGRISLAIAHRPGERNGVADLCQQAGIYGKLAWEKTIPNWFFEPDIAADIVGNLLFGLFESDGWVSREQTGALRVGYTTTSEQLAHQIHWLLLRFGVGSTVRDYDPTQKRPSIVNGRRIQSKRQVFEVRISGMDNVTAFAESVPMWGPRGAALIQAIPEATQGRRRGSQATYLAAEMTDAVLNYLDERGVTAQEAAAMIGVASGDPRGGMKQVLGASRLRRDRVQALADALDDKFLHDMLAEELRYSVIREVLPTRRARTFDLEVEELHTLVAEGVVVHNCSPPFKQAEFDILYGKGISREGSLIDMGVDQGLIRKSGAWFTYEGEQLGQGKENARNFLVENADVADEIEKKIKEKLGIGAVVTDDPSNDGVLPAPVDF

[3] = target: Tyrosyl-DNA phosphodiesterase 2 (Homo sapiens, UniProt O95551); experiment: human TDP2 enzyme inhibitors, dose response, biochemical, epi absorbance, IC50 (AID 743297)
Chain of Tyrosyl-DNA phosphodiesterase 2 (O95551 whole entry): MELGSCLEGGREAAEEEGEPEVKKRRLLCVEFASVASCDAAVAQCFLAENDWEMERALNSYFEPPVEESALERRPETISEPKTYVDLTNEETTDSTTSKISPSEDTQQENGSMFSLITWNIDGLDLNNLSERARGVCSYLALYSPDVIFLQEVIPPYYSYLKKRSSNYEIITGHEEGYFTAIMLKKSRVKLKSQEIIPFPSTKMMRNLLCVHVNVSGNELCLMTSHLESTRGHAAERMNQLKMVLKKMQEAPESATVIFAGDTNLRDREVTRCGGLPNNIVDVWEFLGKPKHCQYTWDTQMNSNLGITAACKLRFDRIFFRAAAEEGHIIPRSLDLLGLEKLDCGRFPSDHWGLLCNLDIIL

O=C(NN=c1c(=O)c2ccccc2c1=O)c1ccccc1
active: IC50 [1] 10.7 µM | IC50 [2] 3.47 µM | EC50 (Protein RecA) 4.83 µM | IC50 [3] 5.36 µM
